{"source": "patent US20180267043A1", "about": "“USE OF BIOMARKERS FOR PREDICTING CLINICAL SENSITIVITY TO CANCER TREATMENT” (CELGENE CORPORATION, priority 2014, published 2018)", "key": {"[1]": {"biological_target": "T1, human CRBN isoform 2 (IKZF1/3, GSPT1/2 as substrates) (Homo sapiens, UniProt Q96SW2, E377V)", "T1 construct": "expressed in transfected cells; host or cells: CRBN-/- cells (elsewhere: 293FT, CRISPR)", "T1 sequence (Q96SW2 1-441 isoform Q96SW2-2 E376V)": "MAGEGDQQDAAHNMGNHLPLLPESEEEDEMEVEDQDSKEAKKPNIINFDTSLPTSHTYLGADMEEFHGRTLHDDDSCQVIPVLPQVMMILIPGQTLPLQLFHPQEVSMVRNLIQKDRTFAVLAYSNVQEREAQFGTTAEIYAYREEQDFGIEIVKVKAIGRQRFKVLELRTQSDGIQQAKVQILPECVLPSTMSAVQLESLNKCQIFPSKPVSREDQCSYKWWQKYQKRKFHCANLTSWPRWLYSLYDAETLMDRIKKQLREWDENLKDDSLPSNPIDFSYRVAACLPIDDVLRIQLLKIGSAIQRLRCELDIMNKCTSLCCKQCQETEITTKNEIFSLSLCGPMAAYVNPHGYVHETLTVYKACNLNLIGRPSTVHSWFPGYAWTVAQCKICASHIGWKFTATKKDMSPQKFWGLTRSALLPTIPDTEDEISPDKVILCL", "T1 sequence (Q16531 whole entry partner, canonical isoform)": "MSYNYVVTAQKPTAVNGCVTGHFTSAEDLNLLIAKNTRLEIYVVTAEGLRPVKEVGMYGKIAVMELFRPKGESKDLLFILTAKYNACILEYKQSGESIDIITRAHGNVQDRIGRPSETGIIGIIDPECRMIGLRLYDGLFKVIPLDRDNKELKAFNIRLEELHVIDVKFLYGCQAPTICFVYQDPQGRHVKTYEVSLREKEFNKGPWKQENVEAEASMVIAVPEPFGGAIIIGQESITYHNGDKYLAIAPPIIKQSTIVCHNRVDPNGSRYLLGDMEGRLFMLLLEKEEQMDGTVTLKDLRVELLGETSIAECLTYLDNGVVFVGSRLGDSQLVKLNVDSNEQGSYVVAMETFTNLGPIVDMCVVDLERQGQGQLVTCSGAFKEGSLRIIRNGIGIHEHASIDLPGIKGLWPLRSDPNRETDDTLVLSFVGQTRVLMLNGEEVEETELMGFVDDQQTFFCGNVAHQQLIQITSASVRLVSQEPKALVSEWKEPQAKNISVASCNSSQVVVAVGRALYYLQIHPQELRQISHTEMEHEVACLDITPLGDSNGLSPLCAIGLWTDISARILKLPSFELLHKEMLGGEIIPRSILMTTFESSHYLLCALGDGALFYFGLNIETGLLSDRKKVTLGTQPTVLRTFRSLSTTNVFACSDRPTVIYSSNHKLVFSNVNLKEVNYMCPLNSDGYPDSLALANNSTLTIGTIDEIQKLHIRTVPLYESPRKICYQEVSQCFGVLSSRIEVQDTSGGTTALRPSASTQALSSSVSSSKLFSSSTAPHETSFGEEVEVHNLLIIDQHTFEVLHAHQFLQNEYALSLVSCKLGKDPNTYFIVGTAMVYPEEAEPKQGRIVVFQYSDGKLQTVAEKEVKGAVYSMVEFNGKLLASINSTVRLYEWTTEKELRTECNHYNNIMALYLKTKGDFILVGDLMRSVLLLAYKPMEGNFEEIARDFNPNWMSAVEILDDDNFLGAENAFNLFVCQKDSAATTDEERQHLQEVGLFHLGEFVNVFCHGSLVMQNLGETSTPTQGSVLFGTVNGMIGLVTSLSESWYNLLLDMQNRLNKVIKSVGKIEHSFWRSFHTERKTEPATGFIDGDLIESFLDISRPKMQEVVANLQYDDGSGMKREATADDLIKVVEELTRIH", "assay": "Substrate degradation in CRBN−/− cells expressing human CRBN isoform 2 or mutants", "format": "cell-based", "settings": "hCRBNiso2 E376V; 1 μM Compound C", "description": "(§1) They were co-expressed together with GFP in CRBN −/− cells. These cells also expressed human CRBN isoform 2, or various specific mutants (hCRBNiso2 E376V, hCRBNiso2 V387I, or hCRBNiso2 W385A) by transfection with corresponding DNA."}, "[2]": {"biological_target": "T2, human CRBN isoform 2 (IKZF1/3, GSPT1/2 as substrates) (Homo sapiens, UniProt Q96SW2)", "T2 construct": "expressed in transfected cells; host or cells: CRBN-/- cells (elsewhere: 293FT, CRISPR)", "T2 sequence (Q96SW2 1-441 isoform Q96SW2-2)": "as the sequence (Q96SW2 1-441 isoform Q96SW2-2 E376V) above, with V376E counted along it", "T2 sequence (Q16531 whole entry partner, canonical isoform)": "as the sequence (Q16531 whole entry partner, canonical isoform) above", "assay": "Substrate degradation in CRBN−/− cells expressing human CRBN isoform 2 or mutants", "format": "cell-based", "settings": "cells expressing human CRBN isoform 2", "description": "as §1"}, "[3]": {"biological_target": "T3, human CRBN isoform 2 (IKZF1/3, GSPT1/2 as substrates) (Homo sapiens, UniProt Q96SW2, V388I)", "T3 construct": "expressed in transfected cells; host or cells: CRBN-/- cells (elsewhere: 293FT, CRISPR)", "T3 sequence (Q96SW2 1-441 isoform Q96SW2-2 V387I)": "as the sequence (Q96SW2 1-441 isoform Q96SW2-2 E376V) above, with V376E, V387I counted along it", "T3 sequence (Q16531 whole entry partner, canonical isoform)": "as the sequence (Q16531 whole entry partner, canonical isoform) above", "assay": "Substrate degradation in CRBN−/− cells expressing human CRBN isoform 2 or mutants", "format": "cell-based", "settings": "hCRBNiso2 V387I; 1 μM Compound C", "description": "as §1"}, "[4]": {"system": "human CRBN isoform 2 (IKZF1/3, GSPT1/2 as substrates)", "assay": "Substrate degradation in CRBN−/− cells expressing human CRBN isoform 2 or mutants", "format": "cell-based", "settings": "CRBN−/− cells without human CRBN; 10 μM lenalidomide or 1 μM Compound C", "description": "as §1"}, "RPMI-8226 [5]": {"system": "RPMI-8226", "assay": "CellTiter-Glo cell viability assay after GSPT1 knockdown, RPMI-8226", "format": "cell-based, human", "settings": "RPMI-8226 expressing shGSPT1-1 or shGSPT1-3 vs parental or control shRNA, 0.01 nM to 0.1 μM, day 9", "protocol": "The effect of depletion of GSPT1 on the anti-proliferative effect of Compound C was determined in human multiple myeloma (MM) cell lines DF15 and RPMI-8226. Treatment compounds were titrated from 0.01 nM to 0.1 μM. Cell proliferation was measured by the CellTiter-Glo cell viability assay (RLU-Relative Luminescent Unit) at day 9 after GSPT1 knockdown by shGSPT1-1 or shGSPT1-3."}, "[6]": {"system": "CRBN and its substrates IKZF1, GSPT1, GSPT2", "assay": "In vitro binding assay, anti-HA immunoprecipitation and immunoblotting", "settings": "cell lysates", "protocol": "CRBN−/− cells expressing HA-tagged substrates were lysed and incubated with anti-HA antibody to pull down substrates. CRBN positive cells expressing shGSPT1 that specifically knocks down GSPT1 were lysed, then mixed with the substrates obtained from CRBN−/− cells. The mixture was incubated with DMSO alone or compounds. Immunoprecipitation using anti-HA antibody was performed. Then, immunoblotting was performed using anti-CRBN or anti-HA antibodies."}, "[7]": {"system": "Acute Myelogenous Leukemia (AML3) cell line", "assay": "CellTiter-Glo cell viability assay after GSPT1 knockdown, AML3", "format": "cell-based, human", "protocol": "The effect of depletion of GSPT1 on the anti-proliferative effect of Compound C was determined in human Acute Myelogenous Leukemia (AML3) cell line. Cells were infected with lentiviral vectors expressing control shRNA, shGSPT1-1 or shGSPT1-3 for 7 days and then treated with DMSO, Compound C in a titration from 0.0001 μM to 1 μM. Two days after treatment, cell proliferation was measured by CellTiter-Glo cell viability assay."}, "RPMI-8226 [8]": {"system": "RPMI-8226", "assay": "Sensitivity to compound-induced ER stress and apoptosis, RPMI-8226", "format": "cell-based, human", "protocol": "The GSPT1 dependency was shown by GSPT1-specific shRNA knockdown experiment. The GSPT1 degradation efficiency was shown by Western Blot. The induction of ATF3 or DDIT3 was measured by quantitative RT-PCR. […] Time needed for Compound C-induced ER stress or Compound C-induced apoptosis was summarized. […] High ER demand may contribute to the sensitivity of certain cancer cells to the treatment of Compound C."}, "XBP1 and ATF6 pathways": {"system": "XBP1 and ATF6 pathways", "assay": "RNA level of XBP1 and ATF6 pathway components in 293FT HEK cells", "format": "cell-based, human", "settings": "1 nM or 10 nM, 24 hours", "protocol": "The mechanism of Compound C-activated XBP1 and ATF6 pathways was studied in 293FT HEK cells. Parental cells, CRBN−/− cells, cells expressing control shRNA, or cells expressing GSPT1-specific shRNA were treated with DMSO, 1 nM, or 10 nM Compound C. The RNA level of variant cellular components along the XBP1 and ATF6 pathways was measured and normalized with GAPDH at 24 hours after treatment."}, "HEK 293FT cells": {"system": "HEK 293FT cells", "assay": "CellTiter-Glo cell viability assay, HEK 293FT cells with GSPT1 shRNA", "format": "cell-based, human", "protocol": "The effect of depletion of GSPT1 on Compound C-induced anti-proliferation was examined in HEK 293FT cells. Cells were infected with either expression vector alone, or vector containing control shRNA or GSPT1-specific shRNA. The cells were then treated with Compound C at different concentrations. Cell proliferation was measured by the CellTiter-Glo cell viability assay (RLU-Relative Luminescent Unit)."}, "FLAG-HA tagged CRBN": {"biological_target": "T4, FLAG-HA tagged CRBN (Homo sapiens, UniProt Q96SW2)", "T4 construct": "HA; expressed in transfected cells", "T4 sequence (Q96SW2 whole entry)": "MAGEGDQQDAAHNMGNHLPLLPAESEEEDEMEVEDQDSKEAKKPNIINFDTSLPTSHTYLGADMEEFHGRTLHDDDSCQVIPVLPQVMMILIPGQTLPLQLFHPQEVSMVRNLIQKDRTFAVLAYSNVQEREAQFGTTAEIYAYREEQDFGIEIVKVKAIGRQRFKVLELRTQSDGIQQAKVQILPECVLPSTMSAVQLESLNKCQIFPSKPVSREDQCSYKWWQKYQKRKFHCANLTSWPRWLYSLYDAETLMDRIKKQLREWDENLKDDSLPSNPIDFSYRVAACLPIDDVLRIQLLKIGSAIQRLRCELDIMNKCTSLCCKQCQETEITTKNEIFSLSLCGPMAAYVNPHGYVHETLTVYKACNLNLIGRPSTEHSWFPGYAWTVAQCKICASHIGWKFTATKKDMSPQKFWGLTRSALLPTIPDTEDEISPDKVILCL", "assay": "Anti-FLAG immunoprecipitation of FLAG-HA CRBN from 293 HEK lysate, mass spectrometry", "format": "binding", "settings": "1 μM, whole cell lysate of 293 HEK cells, vs DMSO", "protocol": "Whole cell lysate of 293 HEK cells stably expressing FLAG-HA tagged CRBN was treated with 1 μM Compound C or DMSO vehicle control. Proteins associated with FLAG-HA CRBN were immunoprecipitated with anti-FLAG affinity gel, separated on SDS-PAGE, silver-stained, and analyzed by mass spectrometry. […] Arrows point to the expected positions of DDB1, GSPT1, PABP1, and CRBN."}, "[9]": {"system": "GSPT1, IKZF1, IKZF3, UPR or apoptosis pathways", "assay": "Protein level of UPR and apoptosis components in DF15 cells", "format": "cell-based, human", "settings": "DF15, 20 nM, 5 or 10 hours", "protocol": "Cells were treated with DMSO alone or 20 nM Compound C. After 5 or 10 hours, the expression level of various cellular components along UPR or apoptosis pathways was measured. […] Loss of BIP immunoreactivity indicates an induction of UPR."}, "PERK/EIF2a/ATF4 pathway": {"system": "PERK/EIF2a/ATF4 pathway", "assay": "mRNA level of PERK/EIF2a/ATF4 pathway components in KG1 cells", "format": "cell-based, human", "settings": "KG1 cells (FIG. 18C)"}, "[10]": {"settings": "293FT parental and control shRNA cells"}}, "data": [{"smiles": "Cc1ccc(NC(=O)NCc2ccc3c(c2)CN(C2CCC(=O)NC2=O)C3=O)cc1Cl", "note": "(stereo not shown) [Compound C, 1-(3-chloro-4-methylphenyl)-3-((2-(2,6-dioxopiperidin-3-yl)-1-oxoisoindolin-5-yl)methyl)urea]", "values": [{"measurement": "Degradation of GSPT1/2", "setting": "[1]", "result": "abolishes Compound C-induced degradation of GSPT1/2"}, {"measurement": "Destruction of GSPT1/2", "setting": "[2]; 1 μM Compound C", "result": "induces destruction of IKZF1/3 and GSPT1/2"}, {"measurement": "Destruction of IKZF1/3", "setting": "[2]; 10 μM lenalidomide or 1 μM Compound C", "result": "induces destruction of IKZF1/3 and GSPT1/2"}, {"measurement": "Degradation of IKZF1/3", "setting": "[3]", "result": "abolishes Compound C-induced degradation of IKZF1/3"}, {"measurement": "Degradation of tested substrates (IKZF1/3, GSPT1/2)", "setting": "[4]", "result": "neither compound triggers degradation of any tested substrate"}, {"measurement": "Anti-proliferative effect", "setting": "RPMI-8226 [5]", "result": "increased anti-proliferative effect"}, {"measurement": "Interaction between CRBN and GSPT1 or GSPT2", "setting": "[6]", "result": "promotes the interaction"}, {"measurement": "Interaction between CRBN and IKZF1", "setting": "[6]", "result": "promotes the interaction"}, {"measurement": "Anti-proliferative effect", "setting": "[7]; AML3 (FIG. 12A)", "result": "exhibited anti-proliferative effect"}, {"measurement": "Anti-proliferative effect", "setting": "[7]; AML3 expressing shGSPT1-1 or shGSPT1-3 vs parental or control shRNA, 0.0001 μM to 1 μM, two days", "result": "increased anti-proliferative effect"}, {"measurement": "Sensitivity to compound-induced ER stress and apoptosis", "setting": "RPMI-8226 [8]", "result": "resistant to Compound C-induced ER stress and apoptosis"}, {"measurement": "RNA level of ATF6 pathway components (XBP1, EDEM1, EDEM2, HYOU1, HSPA5)", "setting": "XBP1 and ATF6 pathways; [10]", "result": "induces expression"}, {"measurement": "RNA level of XBP1 pathway components (SEC24D, DNAJB9, DNAJC6, XBP1, EDEM1, EDEM2, HYOU1)", "setting": "XBP1 and ATF6 pathways; [10]", "result": "induces expression"}, {"measurement": "RNA level of XBP1 and ATF6 pathway components", "setting": "XBP1 and ATF6 pathways; cells with GSPT1 knockdown", "result": "This induction effect increases"}, {"measurement": "Cell proliferation", "setting": "HEK 293FT cells; CRBN+/+ parental cells, expression vector alone, or control shRNA", "result": "show sensitivity to Compound C-induced anti-proliferation"}, {"measurement": "Cell proliferation", "setting": "HEK 293FT cells; CRBN−/− cells", "result": "cannot inhibit cell proliferation"}, {"measurement": "Cell proliferation", "setting": "HEK 293FT cells; GSPT1-specific shRNA knockdown", "result": "growth inhibition starting at even lower concentration of compound treatment"}, {"measurement": "Proteins associated with FLAG-HA CRBN identified as CAPs", "setting": "FLAG-HA tagged CRBN", "result": "PABP1, GSPT1/eRF3a, GSPT2/eRF3b, and HBS1L/eRF3c were identified as CAPs only when CRBN was bound with Compound C"}, {"measurement": "Degradation of GSPT1, IKZF1, and IKZF3", "setting": "[9]", "result": "induces degradation of GSPT1, IKZF1, and IKZF3"}, {"measurement": "Immunoreactivity of antibodies recognizing KDEL motif and BIP C-terminal epitope", "setting": "[9]", "result": "loss of immunoreactivity"}, {"measurement": "Level of pEIF2α, ATF4, ATF3, DDIT3, cleaved caspase 3, and cleaved PARP", "setting": "[9]", "result": "increases the level"}, {"measurement": "mRNA level of ATF4, ATF3, DDIT3, PPP1R15A, GADD45A, TNFRSF1B, and TNFRSF10B", "setting": "PERK/EIF2a/ATF4 pathway", "result": "Compound C-induced expression of ATF4, ATF3, DDIT3, PPP1R15A, GADD45A, TNFRSF1B, and TNFRSF10B"}]}]}
